From patent US20260285924A1, “PEPTIDE THERAPEUTICS” (priority 2023, published 2026)

Assays:
A375 cells = test: A-to-I PepTile screen: fitness effect upon IFNα (PepTile abundance untreated vs treated); type: cell-based, human
Excerpt: (§1) FIGS. 12A-12D. A-to-I PepTile screen. (A) Composition of A-to-I PepTile linrary screen, and schematic description of the lentiviral expression vector. (B) Experimental workflow. A375 cells were transduced at low MOI, and then treated or not with IFNα for 48 hrs. RNA was extracted and Peptide_ADARreporter RNA species were amplified and sequenced by NGS. (C) Dot plot of A-to-I PepTile library effect on A-to-I editing with or without IFNα treatment. Red line is the mean A-to-I editing of all the 8088 peptides (>100 read counts) no treatment: 25.75% IFNα: 37.6%. (D) Dot plot of A-to-I PepTile library fitness effect upon IFNα for 48 hrs.
Provided herein is a screening methodology to measure the effect of small peptide on A-to-I RNA editing in situ and screen thousands of peptides in a single experiment. First, a library of peptides with the potential of impairing A-to-I editing was designed and built. ADAR enzymes edit RNA only on double-stranded RNA structures and via ADAR's double stranded RNA-Binding Domain (dsRBD). […] The A-to-I PepTile library is composed of 19 Human proteins having dsRBD and 34 known protein-protein interactors of ADAR1/2. All these proteins were tiled into 40-mer peptides every 4 amino acids (FIG. 12A). To measure A-to-I editing, a biosensor consisting of a 71 bp dsRNA hairpin structure that gets A-to-I edited at a rate of 25% in A375 melanoma cells, and ~37% upon IFNα treatment was used. This A-to-I editing reporter is fused with DNA sequence encoding for a peptide from the A-to-I PepTile library. The A-to-I PepTile plasmid pool (10304 elements) was used to produced lentiviruses and transduced A375 cells at a low multiplicity of infection (MOI) (FIG. 12B). A part of the infected cells was treated with IFNα at 6000 U/ml for 48 hours, and then bulk RNA of the basal and treated condition was harvested. RNA was then retrotranscribed into cDNA and sequenced by Next-Generation Sequencing (NGS). With the sequencing data, the A-to-I editing percentage of the RNA reporter for each PepTile is calculated since both elements are encoded on the same transcript. Moreover, with this screen one can also measure the abundance of the PepTiles between the untreated and treated conditions and determine Fitness score associated to every PepTile. To ensure a robust and more accurate A-to-I editing % estimation a cut-off of 100 read counts was set for each PepTile. […] SEQ ID NOs: 2125-2147 are A-to-I peptide inhibitors and SEQ ID NOs: 2148-2210 are A-to-I activators. In addition, 117 PepTiles were identified that either synergize (SEQ ID NOs: 2211-2243) or protect (SEQ ID NOs: 2244-2327) to IFNα-induced cell death (FIG. 12D and Table 5). These PepTiles are potential new therapeutic agents that can modulate the Interferon pathway. They may be beneficial in treating inflammatory conditions and may also enhance the effectiveness of cancer immunotherapy through synergistic effects.

[1] = test system: A-to-I RNA editing reporter (ADAR) in A375; test: A-to-I PepTile (REPTILE) screen: A-to-I editing of dsRNA hairpin reporter by NGS; type: cell-based, human; conditions: for % A-to-I editing (IFNα): IFNα 6000 U/ml for 48 hours; for % A-to-I editing (Basal): no treatment
Excerpt: as §1
FIGS. 17A-17F show A-to-I RNA Editing PiTile (REPTILE) screen in A375. (A) A-to-I RNA Editing PiTile (REPTILE) library design consist of fragmentation of all known ADAR1, ADAR2 interactors and all human double stranded RNA-binding protein into 40 amino acid long peptide. This library was then cloned into a lentivirus vector that also encode a DNA-encoded RNA loop reporter (A-to-I Rep) that is edited by ADAR proteins in cells at the RNA level. When the construct is expressed, the RNA loop gets edited on a single Adenosine, while the 40-mer peptide get expressed at the protein level. Then we can measure the impact of the peptide expression on the editing rate of the RNA loop reporter by sequencing (NGS and Sanger). (B) Experimental workflow of REPTILE screen in A375 cell line. Cells were transduced with the REPTILE library, and then treated for 48 hours with IFNα. Following the treatment, RNA was harvested, converted into cDNA and amplicon library containing peptide Identity (barcode) linked to the RNA loop reporter were prepared for NGS. (C) Result of the A375 REPTILE screen in the no treatment condition. Each dot represents a unique peptide that is associated with an A-to-I editing rate that was measured on the RNA loop. (D) Result of the A375 REPTILE screen in the IFNα condition. Each dot represents a unique peptide that is associated with an A-to-I editing rate that was measured on the RNA loop. Red line represent the A-to-I editing mean, Dash blue line represent 2 times the standard deviation of the % A-to-I editing across all the datasets. This cutoff was used to defined peptides hits that modulate RNA A-to-I editing. (E) Peptide A-to-I Inhibitor Hits intersection between no treatment (% A-to-I editing<15%) and IFNα (% A-to-I editing<27%) conditions. (F) Peptide A-to-I Enhancers Hits intersection between no treatment (% A-to-I editing>36%) and IFNα (% A-to-I editing>47%) conditions.
Provided herein is a screening methodology to measure the effect of small peptide on A-to-I RNA editing in situ and screen thousands of peptides in a single experiment. First, a library of peptides with the potential of impairing A-to-I editing was designed and built. ADAR enzymes edit RNA only on double-stranded RNA structures and via ADAR's double stranded RNA-Binding Domain (dsRBD). […] The A-to-I PepTile library is composed of 19 Human proteins having dsRBD and 34 known protein-protein interactors of ADAR1/2. All these proteins were tiled into 40-mer peptides every 4 amino acids (FIG. 12A). To measure A-to-I editing, a biosensor consisting of a 71 bp dsRNA hairpin structure that gets A-to-I edited at a rate of 25% in A375 melanoma cells, and ~37% upon IFNα treatment was used. This A-to-I editing reporter is fused with DNA sequence encoding for a peptide from the A-to-I PepTile library. The A-to-I PepTile plasmid pool (10304 elements) was used to produced lentiviruses and transduced A375 cells at a low multiplicity of infection (MOI) (FIG. 12B). A part of the infected cells was treated with IFNα at 6000 U/ml for 48 hours, and then bulk RNA of the basal and treated condition was harvested. RNA was then retrotranscribed into cDNA and sequenced by Next-Generation Sequencing (NGS). […]

[2] = IFNα 6000 U/ml for 48 hours vs untreated

Sequence | Fitness Score IFNα (A375 cells; [2]) | % A-to-I editing (IFNα) [1] [%] | % A-to-I editing (Basal) [1] [%] | Fitness Score IFNα (A375 cells; A375, PepTile abundance upon IFNα treatment, negative = synthetic lethal, positive = protector)
MNKSEISLVFEIALKRNMPVSFEVIKESGPPHMKSFVTRVS [STAU2_44] | 0.07 | 23.54 | 6.78 | –
MNMMLFEVVKMGKSAMQSVVDDWIESYKHDRDIALLDLINF [STAG2_21] | 0.65 | 58.92 | 43.58 | –
MPLRGWPLELLCEKSIGTANRPMGAGEALRRVLECLASGIV [ILF3_62] | -0.73 | 55.34 | 39.78 | –
MPVSALHQFAQMQRVQLDLKETVTTGNVMGPYFAFCAVVDG [ADAD1_25] | 0.99 | 25.66 | 14.03 | –
MPYERQQFESVEWYNNRNQDNYVSWSDSEDDDEDEEIEEKE [DICER1_98] | -1.79 | 52.37 | 37.74 | –
MQAHLAMGGGPGPGTDFTSDQADFPDTLFQEFEPPAPRPGL [ADARB2_50] | 0.65 | 51.37 | 40.11 | –
MQPQTTINKEQFSKRKNDTLDPELFVECTECGRKMHQICVL [EP300_306] | -0.25 | 20.81 | 12.58 | –
MQQGTPGMALGSMGSVVKSEASSSPPVVTSSSHSRAPCQAG [SOX2_58] | -0.36 | 53.74 | 41.35 | –
MQVEQMEIPPVELPPEEPPNICQLIPELELLPEKEKEKEKE [RAD21_124] | 1.20 | 48.70 | 39.15 | –
MQVTISVTSPLMREDPSTDPGVEEPQADAGDVLSPKKCLES [ZFR2_183] | -0.70 | 54.85 | 40.13 | –
MRFLYSELMKYNSQTAKDSIFEPAKGGEKLQIKKTVSFHLY [ADAR_231] | 0.14 | 65.21 | 56.37 | –
MRNAEFLTCNIPTSNASNNMVTTEKVENGQEPVIKLENRQE [ADAR_97] | -1.27 | 51.11 | 40.12 | –
MRPFQALPREQSPPPPLQTSSGAEVMDVGSGGDGQSELPAE [DGCR8_7] | 0.13 | 54.04 | 40.23 | –
MRRDHQLREAPDTAEKAKSHLEVPLEENVNRRVLEEGSVEA [CCDC124_27] | 1.71 | 24.35 | 12.18 | –
MSELNQKRPQYIKAKENTSHKIKKLEAAKKSLQNAQKHYKK [SMC1A_73] | -0.76 | 23.54 | 11.31 | –
MSESGNSARSSGISSQNSSTSDGDRSVSSQSSSSVSSQVTT [CDKN2AIP_47] | -1.31 | 26.81 | 14.82 | –
MSGTSYSGYEAAVYSAASSYYQQQQQQQKQAAAAAAAAAAT [ZFR_66] | 2.04 | 49.01 | 40.81 | 2.04
